Measurements published in patent US8003783B2, “17B-hydroxysteroid dehydrogenase inhibitors” (Sterix Limited, priority 2004, dated 2011).
Where two headings read alike, the source gives them in different places.

How the values were obtained:
17β-HSD1 = molecular target: T1, 17β-HSD1 (Homo sapiens, UniProt P14061); assay: 17β-HSD Type I activity in T-47D cells (E1→E2); assay type: cell-based; details: for inhibition at 10 µM: T47D
T1 construct: was measured in intact cell monolayers of T47D and MDA-MB-231 breast cancer cells respectively; endogenous in cells; host or cells: T-47D human breast cancer cells
T1 sequence (P14061 1-328): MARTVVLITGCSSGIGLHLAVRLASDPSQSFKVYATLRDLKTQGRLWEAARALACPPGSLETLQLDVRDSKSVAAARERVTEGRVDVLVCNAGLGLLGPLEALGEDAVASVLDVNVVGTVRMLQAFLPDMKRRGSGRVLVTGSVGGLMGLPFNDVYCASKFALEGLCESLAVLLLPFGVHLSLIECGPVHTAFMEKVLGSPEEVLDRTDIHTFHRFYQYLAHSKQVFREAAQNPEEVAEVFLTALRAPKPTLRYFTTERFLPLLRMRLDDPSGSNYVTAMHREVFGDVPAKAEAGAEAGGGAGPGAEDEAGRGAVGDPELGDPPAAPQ

17β-HSD2 = molecular target: T2, 17β-HSD2 (Homo sapiens, UniProt P37059); assay: 17β-HSD Type II activity in MDA-MB-231 cells (E2→E1); assay type: cell-based
T2 construct: was measured in intact cell monolayers of T47D and MDA-MB-231 breast cancer cells respectively; endogenous in cells; host or cells: MDA-MB-231 human breast cancer cells
T2 sequence (P37059 1-387): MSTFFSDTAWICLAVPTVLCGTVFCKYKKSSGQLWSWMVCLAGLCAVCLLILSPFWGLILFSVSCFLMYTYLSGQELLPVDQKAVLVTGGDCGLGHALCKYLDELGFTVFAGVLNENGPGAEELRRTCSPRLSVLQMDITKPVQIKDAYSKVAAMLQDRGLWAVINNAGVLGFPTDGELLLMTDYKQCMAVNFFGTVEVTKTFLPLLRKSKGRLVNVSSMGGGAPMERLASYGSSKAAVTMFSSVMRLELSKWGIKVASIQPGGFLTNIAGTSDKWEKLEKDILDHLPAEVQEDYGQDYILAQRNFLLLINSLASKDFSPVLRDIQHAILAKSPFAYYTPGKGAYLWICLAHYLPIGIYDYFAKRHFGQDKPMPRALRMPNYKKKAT

[1] = 10 μM, T-47D cells, E1→E2, read-out: % inhibition of 17β-HSD1 @ 10 μM
[2] = 10 μM, MDA-MB-231 cells, E2→E1, read-out: % inhibition of 17β-HSD2 @ 10 μM
[3] = T-47D cells, E1→E2, read-out: IC50 (17β-HSD1)
[4] = read-out: % inhibition of 17β-HSD1 @ 10 μM, 10 μM, T-47D cells, E1→E2
[5] = MDA-MB-231, read-out: % inhibition of 17β-HSD2 @ 10 μM

Compound	inhibition at 10 µM (17β-HSD1; [1]) [%]	inhibition at 10 µM (17β-HSD2; [2]) [%]	other results
C[C@]12CCC3c4ccc(O)cc4CCC3C1CC(Cc1ccncc1)[C@@H]2O (stereo partly drawn) [compound 543, 13-Methyl-16-pyridin-4-ylmethyl-7,8,9,11,12,13,14,15,16,17-decahydro-6H-cyclopenta[a]phenanthrene-3,17-diol]	84	37	
C[C@]12CCC3c4ccc(O)cc4CCC3C1C/C(=C\c1ccccc1)[C@@H]2O (stereo partly drawn) [compound 313]	26	5	
C[C@]12CCC3c4ccc(O)cc4C(=O)CC3C1Cc1c[nH]nc12 (stereo partly drawn) [compound 737, 2-Hydroxy-6a-methyl-5,6,6a,8,10,10a,10b,11-octahydro-4bH-7,8-diazo-pentaleno[2,1-a]phenanthren-12-one]	96	-9	IC50 (17β-HSD1; [3]): 460 nM
C[C@]12CCC3c4ccc(O)cc4CCC3C1CC(C(=O)NCc1cccnc1)[C@@H]2O (stereo partly drawn) [compound 798]	91	-12	IC50 (17β-HSD1): 510 nM
CC(C)Cn1ncc2c1[C@@]1(C)CCC3c4ccc(O)cc4CCC3C1C2 (stereo partly drawn) [compound 813]			inhibition at 10 µM (17β-HSD1; [4]): 70%; inhibition at 10 µM (17β-HSD2; [5]): 44%
CC(C)NC(=O)c1[nH]nc2c1CC1C3CCc4cc(O)ccc4C3CC[C@]21C (stereo partly drawn) [compound 857, 2-Hydroxy-6a-methyl-4b,5,6,6a,8,10,10a,10b,11,12-decahydro-7,8-diaza-pentaleno[2,1-a]phenanthrene-9-carboxylic acid isopropyl amide]	57	0.3	
C[C@]12CCC3c4ccc(OS(N)(=O)=O)cc4CCC3C1C/C(=N/O)C2=O (stereo partly drawn) [compound 337]	47	8	
C[C@]12CCC3c4ccc(O)cc4CCC3C1CC(=N/O)/C2=N\O (stereo partly drawn) [compound 338]	55	-2	
C[C@]12CCC3c4ccc(O)cc4CCC3C1CC(C(=O)NCc1ccncc1)[C@@H]2O (stereo partly drawn) [compound 845]	87	2.5	
C[C@]12CCC3c4ccc(O)cc4CCC3C1C/C(=C\c1ccccn1)[C@@H]2O (stereo partly drawn) [compound 322]	55	17	
C[C@]12CCC3c4ccc(OS(N)(=O)=O)cc4CCC3C1C/C(=C\c1ccncc1)C2=O (stereo partly drawn) [compound 452]	28	11	
C[C@]12CCC3c4ccc(O)cc4CCC3C1Cc1c2n[nH]c1C(=O)NCc1cccnc1 (stereo partly drawn) [compound 860, 2-Hydroxy-6a-methyl-4b,5,6,6a,8,10,10a,10b,11,12-decahydro-7,8-diaza-pentaleno[2,1-a]phenanthrene-9-carboxylic acid (pyridin-3-ylmethyl)-amide]	92	28	IC50 (17β-HSD1; [3]): 780 nM
COc1cc2c(cc1O)CCC1C2CC[C@]2(C)C(=O)C(C#N)CC12 (stereo partly drawn) [compound 208]	35	4	% inhibition of 17β-HSD1 @ 10 μM (17β-HSD1; 10 μM, T-47D cells, E1→E2): 31%
C[C@]12CCC3c4ccc(O)cc4CCC3C1C/C(=C\c1cccs1)C2=O (stereo partly drawn) [compound 475]	67	14	
C[C@]12CCC3c4ccc(O)cc4CCC3C1Cc1c2n[nH]c1O (stereo partly drawn) [compound 820, 6a-Methyl-4b,5,6,6a,8,10,10a,10b,11,12-decahydro-7,8-diaza-pentaleno[2,1-a]phenanthrene-2,9-diol]	86	7	
C[C@]12CCC3c4ccc(O)cc4CCC3C1Cc1cccnc12 (stereo partly drawn) [compound 663]	78	34	
CC(NC(=O)C1CC2C3CCc4cc(O)ccc4C3CC[C@]2(C)[C@H]1O)c1ccccc1 (stereo partly drawn) [compound 844]	90	12	IC50 (17β-HSD1): 810 nM
C[C@]12CCC3c4ccc(OS(N)(=O)=O)cc4CCC3C1C/C(=C\c1ccccc1)C2=O (stereo partly drawn) [compound 314]	-1	1	
COC(=O)C1CC2C3CCc4cc(O)ccc4C3CC[C@]2(C)[C@H]1O (stereo partly drawn) [compound 572]	63	2	
C[C@]12CCC3c4ccc(O)cc4CCC3C1CC(C(=O)NCC1CCCO1)[C@@H]2O (stereo partly drawn) [compound 779]	82	11	
CC(C)NC(=O)C1CC2C3CCc4cc(O)ccc4C3CC[C@]2(C)[C@H]1O (stereo partly drawn) [compound 801]			inhibition at 10 µM (17β-HSD1; [4]): 70%; inhibition at 10 µM (17β-HSD2; [5]): -15%

Compound	inhibition at 10 µM (17β-HSD1; [1]) [%]	inhibition at 10 µM (17β-HSD2; [2]) [%]	other results
CN(C)c1ccc(CC2CC3C4CCc5cc(O)ccc5C4CC[C@]3(C)[C@H]2O)cc1 (stereo partly drawn) [compound 594, 16-(4-Dimethylamino-benzyl)-13-methyl-7,8,9,11,12,13,14,15,16,17-decahydro-6H-cyclopenta[a]phenanthrene-3,17-diol]	41	25	
C[C@]12CCC3c4ccc(O)cc4CCC3C1CC(Cc1ccccn1)[C@@H]2O (stereo partly drawn) [compound 567, 13-Methyl-16-pyridin-2-ylmethyl-7,8,9,11,12,13,14,15,16,17-decahydro-6H-cyclopenta[□]phenanthrene-3-17-diol]	88	11	
C[C@]12CCC3c4ccc(O)cc4CCC3C1Cc1c2n[nH]c1C(F)(F)F (stereo partly drawn) [compound 949]	75	36	
COc1cc2c(cc1O)CCC1C2CC[C@]2(C)C(=O)C(CC(=O)NCc3cccnc3)CC12 (stereo partly drawn) [compound 1191]	96	1.2	IC50 (17β-HSD1; [3]): 290 nM
C[C@]12CCC3c4ccc(O)cc4CCC3C1C/C(=C\c1ccc(C#N)cc1)C2=O (stereo partly drawn) [compound 478]	39	18	
COC(=O)C1(CN2C(=O)c3ccccc3C2=O)CC2C3CCc4cc(O)ccc4C3CC[C@]2(C)C1=O (stereo partly drawn) [compound 780]	71	17	
COC(=O)Cn1cc2c(n1)[C@@]1(C)CCC3c4ccc(O)cc4CCC3C1C2 (stereo partly drawn) [compound 806]	95	19	IC50 (17β-HSD1; [3]): 920 nM
C[C@]12CCC3c4ccc(O)cc4CCC3C1CC(C(=O)NCc1ccco1)[C@@H]2O (stereo partly drawn) [compound 679]	87	-9	
C[C@]12CCC3c4ccc(O)cc4CCC3C1CC(CO)[C@@H]2O (stereo partly drawn) [compound 612]	86	17	
C[C@]12CCC3c4ccc(O)cc4CCC3C1CC(CC(=O)NCc1ccccn1)C2=O (stereo partly drawn) [compound 669]			inhibition at 10 µM (17β-HSD1; [4]): 82%; inhibition at 10 µM (17β-HSD2; [5]): 7%
CN(C)c1ccc(/C=C2\CC3C4CCc5cc(O)ccc5C4CC[C@]3(C)[C@H]2O)cc1 (stereo in doubt) [compound 511, 16-(4-Dimethylamino-benzylidene)-13-methyl-7,8,9,11,12,13,14,15,16,17-decahydro-6H-cyclopenta[a]phenanthrene-3,17-diol]	72	81	IC50 (17β-HSD2; MDA-MB-231 cells, E2→E1): 5400 nM
C[C@]12CCC3c4ccc(O)cc4CCC3C1CC(CC(=O)NCc1ccco1)C2=O (stereo partly drawn) [compound 672]			inhibition at 10 µM (17β-HSD1; [4]): 85%; inhibition at 10 µM (17β-HSD2; [5]): 3%
C[C@]12CCC3c4ccc(O)cc4CCC3C1CC(CC(=O)NCC1CCCO1)[C@@H]2O (stereo partly drawn) [compound 668]	63	25	
C[C@]12CCC3c4ccc(O)cc4CCC3C1C/C(=C\c1ccc(C#N)cc1)[C@@H]2O (stereo partly drawn) [compound 510]	57	31	
CCN(CC)C(=O)CC1CC2C3CCc4cc(O)ccc4C3CC[C@]2(C)C1=O (stereo partly drawn) [compound 742]	82	2	
CN1CCN(C(=O)c2[nH]nc3c2CC2C4CCc5cc(O)ccc5C4CC[C@]32C)CC1 (stereo partly drawn) [compound 897]			inhibition at 10 µM (17β-HSD1; [4]): 50%; inhibition at 10 µM (17β-HSD2; [5]): -0.7%
CC1(C#N)CC2C3CCc4cc(O)ccc4C3CC[C@]2(C)C1=O (stereo partly drawn) [compound 924]	85	12	
CCc1cc2c(cc1O)CCC1C2CC[C@]2(C)C(=O)C(CC(=O)NCc3cccnc3)CC12 (stereo partly drawn) [compound 1040]		-5	IC50 (17β-HSD1): 27 nM
C[C@]12CCC3c4ccc(O)cc4CCC3C1Cc1c2n[nH]c1C(=O)NCCc1cccnc1 (stereo partly drawn) [compound 916]			inhibition at 10 µM (17β-HSD1; [4]): 98.5%; IC50 (17β-HSD1; [3]): 300 nM; inhibition at 10 µM (17β-HSD2; [5]): 3%
COc1cc(/C=C2\CC3C4CCc5cc(OS(N)(=O)=O)ccc5C4CC[C@]3(C)[C@H]2O)cc(OC)c1OC (stereo partly drawn) [compound 693]	13	10	
CC(C)(C)/C=C1\CC2C3CCc4cc(O)ccc4C3CC[C@]2(C)C1=O (stereo partly drawn) [compound 748]	82	31	
